Measured values as given in ChEMBL document CHEMBL1201862, “PubChem BioAssay data set” (2004).
The source made the active and inactive calls.

Experiments:
[1] = Counterscreen for AddAB inhibitors: absorbance-based bacterial cell-based high throughput dose response assay for inhibitors of bacterial viability. [Related pubchem assays (depositor defined):AID435030, AID449728, AID449731, AID488942, AID488955, AID488956]; assay type: functional
Exodeoxyribonuclease V = target: T1, Exodeoxyribonuclease V (Escherichia coli (strain K12), UniProt P04993+P07648+P08394); experiment: E. coli RecBCD inhibitors, dose response, counter-screen for AddAB inhibitor project, absorbance, V66 E. coli, mutant T4 phage (AID 492957); assay type: functional, cell-based, Escherichia coli str. K-12 substr. MG1655
T1 sequence (P04993 whole entry): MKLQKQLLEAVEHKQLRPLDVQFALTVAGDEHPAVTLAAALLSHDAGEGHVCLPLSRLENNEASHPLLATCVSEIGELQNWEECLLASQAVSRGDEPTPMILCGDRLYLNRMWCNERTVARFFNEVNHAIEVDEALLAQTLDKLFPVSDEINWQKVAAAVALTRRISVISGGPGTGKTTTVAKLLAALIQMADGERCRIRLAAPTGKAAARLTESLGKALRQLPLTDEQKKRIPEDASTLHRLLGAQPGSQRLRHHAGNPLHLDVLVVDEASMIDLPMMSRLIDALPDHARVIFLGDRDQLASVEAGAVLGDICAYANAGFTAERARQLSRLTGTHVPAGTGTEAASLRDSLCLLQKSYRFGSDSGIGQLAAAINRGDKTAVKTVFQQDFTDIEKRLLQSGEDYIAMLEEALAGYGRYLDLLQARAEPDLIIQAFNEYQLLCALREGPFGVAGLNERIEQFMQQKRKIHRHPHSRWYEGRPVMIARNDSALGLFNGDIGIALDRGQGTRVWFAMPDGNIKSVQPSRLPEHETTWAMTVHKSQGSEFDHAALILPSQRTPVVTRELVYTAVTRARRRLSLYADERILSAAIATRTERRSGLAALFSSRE
T1 sequence (P07648 whole entry): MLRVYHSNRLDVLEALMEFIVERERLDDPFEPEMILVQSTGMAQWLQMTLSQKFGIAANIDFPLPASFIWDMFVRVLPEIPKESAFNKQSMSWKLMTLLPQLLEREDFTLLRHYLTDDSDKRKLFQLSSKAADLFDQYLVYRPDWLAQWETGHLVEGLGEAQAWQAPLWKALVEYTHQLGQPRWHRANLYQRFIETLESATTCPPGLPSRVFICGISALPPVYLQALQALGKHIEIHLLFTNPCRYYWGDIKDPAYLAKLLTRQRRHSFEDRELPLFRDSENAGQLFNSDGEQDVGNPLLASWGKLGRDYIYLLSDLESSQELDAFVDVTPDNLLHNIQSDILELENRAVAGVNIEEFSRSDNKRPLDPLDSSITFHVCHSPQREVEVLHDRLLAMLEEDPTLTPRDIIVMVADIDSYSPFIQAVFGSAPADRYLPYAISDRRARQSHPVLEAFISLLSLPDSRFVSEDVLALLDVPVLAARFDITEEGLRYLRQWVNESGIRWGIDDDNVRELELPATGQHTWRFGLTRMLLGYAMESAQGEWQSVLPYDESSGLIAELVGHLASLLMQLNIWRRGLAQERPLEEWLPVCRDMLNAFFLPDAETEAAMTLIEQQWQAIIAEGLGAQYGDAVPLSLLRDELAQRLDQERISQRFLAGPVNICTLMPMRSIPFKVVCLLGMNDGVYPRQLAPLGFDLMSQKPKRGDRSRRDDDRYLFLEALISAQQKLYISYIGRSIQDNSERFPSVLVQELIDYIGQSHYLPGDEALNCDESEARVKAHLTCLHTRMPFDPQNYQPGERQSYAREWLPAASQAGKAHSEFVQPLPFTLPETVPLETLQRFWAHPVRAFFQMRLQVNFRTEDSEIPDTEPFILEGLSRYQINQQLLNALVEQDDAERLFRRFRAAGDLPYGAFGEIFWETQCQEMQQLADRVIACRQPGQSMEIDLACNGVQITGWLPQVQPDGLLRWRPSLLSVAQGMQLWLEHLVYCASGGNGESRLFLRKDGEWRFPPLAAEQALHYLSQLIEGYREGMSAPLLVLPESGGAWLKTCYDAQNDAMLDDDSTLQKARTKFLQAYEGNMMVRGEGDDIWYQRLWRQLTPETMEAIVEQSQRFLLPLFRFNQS
T1 sequence (P08394 whole entry): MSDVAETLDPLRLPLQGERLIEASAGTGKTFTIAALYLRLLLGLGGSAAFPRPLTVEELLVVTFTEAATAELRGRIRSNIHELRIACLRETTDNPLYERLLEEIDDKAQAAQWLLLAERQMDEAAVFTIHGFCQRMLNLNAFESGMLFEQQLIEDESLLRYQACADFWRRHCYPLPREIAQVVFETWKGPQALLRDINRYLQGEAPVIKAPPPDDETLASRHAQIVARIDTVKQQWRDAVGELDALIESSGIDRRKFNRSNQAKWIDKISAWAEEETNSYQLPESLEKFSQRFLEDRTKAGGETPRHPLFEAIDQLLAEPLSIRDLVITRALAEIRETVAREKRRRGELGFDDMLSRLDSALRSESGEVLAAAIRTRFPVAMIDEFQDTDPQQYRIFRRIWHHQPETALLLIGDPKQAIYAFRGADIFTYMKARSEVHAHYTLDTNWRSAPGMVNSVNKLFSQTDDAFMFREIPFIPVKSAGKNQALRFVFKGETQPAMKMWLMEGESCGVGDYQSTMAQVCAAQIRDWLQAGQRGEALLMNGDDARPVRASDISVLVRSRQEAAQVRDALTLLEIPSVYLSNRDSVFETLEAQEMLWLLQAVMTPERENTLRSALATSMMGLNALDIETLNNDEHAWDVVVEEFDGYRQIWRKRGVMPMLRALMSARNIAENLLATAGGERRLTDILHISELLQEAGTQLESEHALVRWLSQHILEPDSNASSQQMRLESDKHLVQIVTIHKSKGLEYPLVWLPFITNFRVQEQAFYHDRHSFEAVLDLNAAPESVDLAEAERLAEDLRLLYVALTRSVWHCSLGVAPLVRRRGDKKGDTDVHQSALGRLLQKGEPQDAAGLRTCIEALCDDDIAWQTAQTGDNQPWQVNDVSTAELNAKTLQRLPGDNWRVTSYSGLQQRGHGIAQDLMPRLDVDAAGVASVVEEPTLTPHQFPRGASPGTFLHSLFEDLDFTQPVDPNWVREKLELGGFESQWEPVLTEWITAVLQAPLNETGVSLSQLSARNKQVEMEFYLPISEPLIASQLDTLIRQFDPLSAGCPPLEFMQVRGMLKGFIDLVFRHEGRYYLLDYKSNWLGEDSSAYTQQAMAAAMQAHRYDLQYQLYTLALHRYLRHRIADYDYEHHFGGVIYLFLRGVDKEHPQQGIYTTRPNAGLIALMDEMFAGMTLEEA

[2] = target: T2, Nucleotide-binding oligomerization domain-containing protein 1 (Homo sapiens, UniProt Q9Y239); experiment: NOD1 signaling inhibitors, SAR follow-up, revised (AID 2333); assay type: functional
T2 sequence (Q9Y239 whole entry): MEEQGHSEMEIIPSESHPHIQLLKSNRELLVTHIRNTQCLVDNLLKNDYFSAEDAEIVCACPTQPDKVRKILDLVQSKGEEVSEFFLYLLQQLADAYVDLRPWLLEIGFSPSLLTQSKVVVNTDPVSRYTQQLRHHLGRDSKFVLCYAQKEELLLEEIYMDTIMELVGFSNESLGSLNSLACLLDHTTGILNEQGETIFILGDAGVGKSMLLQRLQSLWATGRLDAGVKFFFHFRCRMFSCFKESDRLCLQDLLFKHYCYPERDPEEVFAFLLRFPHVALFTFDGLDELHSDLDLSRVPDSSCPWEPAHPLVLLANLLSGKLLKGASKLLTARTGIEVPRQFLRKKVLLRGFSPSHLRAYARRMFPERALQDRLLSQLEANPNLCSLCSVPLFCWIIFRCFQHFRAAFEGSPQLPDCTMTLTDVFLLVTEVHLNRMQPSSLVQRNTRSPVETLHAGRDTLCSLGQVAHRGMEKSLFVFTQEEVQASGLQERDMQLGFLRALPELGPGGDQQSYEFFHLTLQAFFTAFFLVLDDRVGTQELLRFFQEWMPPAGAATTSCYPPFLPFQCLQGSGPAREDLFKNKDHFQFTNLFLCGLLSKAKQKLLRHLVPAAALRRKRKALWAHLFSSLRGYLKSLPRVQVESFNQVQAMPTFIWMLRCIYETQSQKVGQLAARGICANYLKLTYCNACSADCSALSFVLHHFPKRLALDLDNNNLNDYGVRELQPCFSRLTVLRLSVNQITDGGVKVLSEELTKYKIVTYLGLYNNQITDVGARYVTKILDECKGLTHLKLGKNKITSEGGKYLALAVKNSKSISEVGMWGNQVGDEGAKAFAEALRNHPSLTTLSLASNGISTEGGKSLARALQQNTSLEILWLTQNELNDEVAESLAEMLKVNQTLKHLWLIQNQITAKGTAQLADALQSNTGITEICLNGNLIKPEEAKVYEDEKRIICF

[3] = target: Nucleotide-binding oligomerization domain-containing protein 2 (Homo sapiens, UniProt Q9HC29); experiment: PubChem AID 2334; assay type: functional
Tumor necrosis factor = Tumor necrosis factor (Homo sapiens, UniProt P01375); experiment: TNFa-triggered NF-kB activation inhibitors, SAR follow-up, cell-based, revised (AID 2337); assay type: functional
HEK293 = experiment: cells; conditions: Homo sapiens;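 further: cells exposed to compound for 14 hours overnight before viability readout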
[4] = THP-1 cell cytotoxicity, dose response, cytotoxicity control for non-replicating M. tuberculosis project (AID 489025); assay type: functional
[5] = HepG2 cell cytotoxicity, dose response, cytotoxicity control for non-replicating M. tuberculosis project (AID 489018); assay type: functional; conditions: Mycobacterium tuberculosis
[6] = Vero E6 cell cytotoxicity, dose response, cytotoxicity control for non-replicating M. tuberculosis project, secondary assay (AID 492998); assay type: functional, VeroE6; conditions: Vero C1008
cells [7] = assay type: functional
SUMO-activating enzyme = SUMO-activating enzyme (Homo sapiens, UniProt Q9UBT2); experiment: SUMOylation inhibitor hit validation, confirmation, SUMOylation inhibitor project, biochemical, AlphaScreen (AID 2018); assay type: functional
Cytochrome P450 2C9 = Cytochrome P450 2C9 (Homo sapiens, UniProt P11712)
Cytochrome P450 2D6 = Cytochrome P450 2D6 (Homo sapiens, UniProt P10635);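 further: CYP2D6 member of a cytochrome P450 panel assay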
[8] = inhibitors of intracellular T. cruzi replication, confirmation, NIH3T3 host cells, beta-gal luminescence (AID 2044); assay type: functional, cell-based;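 further: intracellular parasites grown in NIH/3T3 mouse fibroblasts as host cells; luminescent beta-galactosidase reporter signal from transgenic T. cruzi replicating inside host cells; inhibitors lower the luminescence signal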
[9] = inhibitors of firefly luciferase expression or activity, dose response, H4 neuroglioma cells, luminescence (AID 1990); assay type: functional, cell-based
INS1 = experiment: beta cell apoptosis inhibitors, cytokine rescue, dose response, luminescence, retest (AID 449756); assay type: functional, cell-based; conditions: Rattus norvegicus;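 further: cell death triggered by IL-1 beta plus TNF-alpha plus IFN-gamma mixture; protective hits raise ATP signal compared with cytokine alone wells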
[10] = cytotoxicity toward NIH3T3 fibroblasts, dose response, counter-screen, cell-based, ATP luminescence, mouse fibroblasts (AID 2010); assay type: functional;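 further: cells exposed to compound for about 90 hours before reading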
cells [11] = assay type: functional, cell-based
cells [12] = assay type: functional, cell-based; remark: listed apart in the source
[13] = inhibitors of SNCA 5'UTR-driven reporter translation, confirmation, H4 neuroglioma cells, luminescence (AID 1988); assay type: functional, cell-based
[14] = NIH-3T3 fibroblast cytotoxicity, dose response, cytotoxicity control, cell-based, fluorescence, Alamar Blue, secondary assay (AID 2327); assay type: functional;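 further: NIH-3T3 mouse fibroblasts cultured with fluconazole at 8 µg/mL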
[15] = Luminescence Cell-Based Dose Response HTS to Identify Inhibitors of 5'UTR Stem-Loop Driven Prion Protein mRNA Translation in H4 Neuroglioblastoma Cells. [Related pubchem assays: 1827 (Project Summary), 1813 (Primary HTS)]; assay type: functional

Sequence of Tumor necrosis factor (P01375 whole entry): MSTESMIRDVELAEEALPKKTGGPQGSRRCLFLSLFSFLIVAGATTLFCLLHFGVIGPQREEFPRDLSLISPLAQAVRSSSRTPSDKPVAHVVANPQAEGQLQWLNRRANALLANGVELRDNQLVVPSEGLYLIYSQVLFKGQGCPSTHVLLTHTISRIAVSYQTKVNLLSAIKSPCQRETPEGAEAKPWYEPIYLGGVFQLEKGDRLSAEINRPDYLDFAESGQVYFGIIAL
Sequence of Nucleotide-binding oligomerization domain-containing protein 2 (Q9HC29 whole entry, the tested form may be a part): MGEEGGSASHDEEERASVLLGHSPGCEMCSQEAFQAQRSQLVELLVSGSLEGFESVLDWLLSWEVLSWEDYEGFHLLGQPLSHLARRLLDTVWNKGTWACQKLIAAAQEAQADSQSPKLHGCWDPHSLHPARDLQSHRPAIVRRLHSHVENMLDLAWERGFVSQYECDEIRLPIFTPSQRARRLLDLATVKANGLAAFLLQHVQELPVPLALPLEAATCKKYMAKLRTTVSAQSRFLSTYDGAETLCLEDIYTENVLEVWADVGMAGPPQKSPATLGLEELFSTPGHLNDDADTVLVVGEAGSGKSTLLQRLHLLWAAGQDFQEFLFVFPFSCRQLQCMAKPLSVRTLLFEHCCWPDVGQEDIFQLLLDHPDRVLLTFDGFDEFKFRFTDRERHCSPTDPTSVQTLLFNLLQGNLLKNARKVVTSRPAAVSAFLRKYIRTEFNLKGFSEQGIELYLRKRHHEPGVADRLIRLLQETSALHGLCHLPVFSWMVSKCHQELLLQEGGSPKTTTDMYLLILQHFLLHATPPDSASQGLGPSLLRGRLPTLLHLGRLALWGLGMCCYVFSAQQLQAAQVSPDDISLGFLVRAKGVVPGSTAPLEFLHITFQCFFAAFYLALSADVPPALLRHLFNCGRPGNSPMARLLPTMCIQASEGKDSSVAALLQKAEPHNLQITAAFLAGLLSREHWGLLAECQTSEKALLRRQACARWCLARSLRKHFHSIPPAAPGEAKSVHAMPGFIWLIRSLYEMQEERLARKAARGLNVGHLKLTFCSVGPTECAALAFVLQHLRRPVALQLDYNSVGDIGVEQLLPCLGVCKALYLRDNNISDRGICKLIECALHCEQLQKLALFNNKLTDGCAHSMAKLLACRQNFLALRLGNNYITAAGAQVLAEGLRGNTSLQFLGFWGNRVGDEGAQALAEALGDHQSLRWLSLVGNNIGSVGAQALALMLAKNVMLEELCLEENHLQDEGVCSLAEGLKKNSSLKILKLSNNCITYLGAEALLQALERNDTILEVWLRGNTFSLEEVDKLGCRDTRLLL
Sequence of Cytochrome P450 2C9 (P11712 whole entry): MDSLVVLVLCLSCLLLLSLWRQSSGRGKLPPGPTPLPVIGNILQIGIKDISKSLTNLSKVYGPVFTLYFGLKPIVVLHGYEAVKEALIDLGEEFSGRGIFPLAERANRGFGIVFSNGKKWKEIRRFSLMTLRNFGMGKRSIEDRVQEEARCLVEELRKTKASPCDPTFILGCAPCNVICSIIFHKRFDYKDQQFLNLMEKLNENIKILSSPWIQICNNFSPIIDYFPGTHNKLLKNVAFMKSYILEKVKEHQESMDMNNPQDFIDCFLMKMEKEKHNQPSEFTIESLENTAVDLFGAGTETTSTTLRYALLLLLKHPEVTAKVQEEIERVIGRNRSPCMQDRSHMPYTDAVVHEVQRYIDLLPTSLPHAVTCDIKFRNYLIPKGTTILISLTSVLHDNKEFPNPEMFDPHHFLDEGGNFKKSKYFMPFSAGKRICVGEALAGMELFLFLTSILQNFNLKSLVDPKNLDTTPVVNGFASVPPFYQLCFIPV
Sequence of SUMO-activating enzyme (Q9UBE0 whole entry): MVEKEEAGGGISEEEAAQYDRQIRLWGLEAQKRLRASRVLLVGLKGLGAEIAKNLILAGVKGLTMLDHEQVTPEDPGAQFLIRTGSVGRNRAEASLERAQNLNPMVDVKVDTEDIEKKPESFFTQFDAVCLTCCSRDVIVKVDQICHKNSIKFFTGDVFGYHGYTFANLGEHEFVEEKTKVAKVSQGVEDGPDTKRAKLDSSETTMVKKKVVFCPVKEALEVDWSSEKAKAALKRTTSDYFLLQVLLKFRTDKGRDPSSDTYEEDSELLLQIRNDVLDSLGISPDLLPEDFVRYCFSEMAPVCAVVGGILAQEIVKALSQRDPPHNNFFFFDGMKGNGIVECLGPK
Sequence of SUMO-activating enzyme (Q9UBT2 whole entry): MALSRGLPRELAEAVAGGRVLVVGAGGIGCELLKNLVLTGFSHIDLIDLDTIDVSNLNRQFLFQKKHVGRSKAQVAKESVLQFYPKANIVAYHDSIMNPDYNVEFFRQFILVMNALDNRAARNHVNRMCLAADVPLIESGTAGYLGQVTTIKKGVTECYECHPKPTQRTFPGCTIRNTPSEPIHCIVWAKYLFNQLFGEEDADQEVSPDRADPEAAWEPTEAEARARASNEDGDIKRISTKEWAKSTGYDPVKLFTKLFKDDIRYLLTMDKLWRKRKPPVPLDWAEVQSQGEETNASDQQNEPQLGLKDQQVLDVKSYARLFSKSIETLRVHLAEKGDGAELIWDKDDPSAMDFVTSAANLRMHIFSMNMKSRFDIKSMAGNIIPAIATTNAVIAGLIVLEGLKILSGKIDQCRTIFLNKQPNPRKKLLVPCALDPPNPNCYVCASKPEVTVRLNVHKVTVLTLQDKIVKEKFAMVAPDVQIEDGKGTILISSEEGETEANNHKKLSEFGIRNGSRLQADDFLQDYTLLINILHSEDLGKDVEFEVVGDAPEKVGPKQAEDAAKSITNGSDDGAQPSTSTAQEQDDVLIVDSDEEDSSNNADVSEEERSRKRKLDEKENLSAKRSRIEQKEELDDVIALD
Sequence of Cytochrome P450 2D6 (P10635 whole entry): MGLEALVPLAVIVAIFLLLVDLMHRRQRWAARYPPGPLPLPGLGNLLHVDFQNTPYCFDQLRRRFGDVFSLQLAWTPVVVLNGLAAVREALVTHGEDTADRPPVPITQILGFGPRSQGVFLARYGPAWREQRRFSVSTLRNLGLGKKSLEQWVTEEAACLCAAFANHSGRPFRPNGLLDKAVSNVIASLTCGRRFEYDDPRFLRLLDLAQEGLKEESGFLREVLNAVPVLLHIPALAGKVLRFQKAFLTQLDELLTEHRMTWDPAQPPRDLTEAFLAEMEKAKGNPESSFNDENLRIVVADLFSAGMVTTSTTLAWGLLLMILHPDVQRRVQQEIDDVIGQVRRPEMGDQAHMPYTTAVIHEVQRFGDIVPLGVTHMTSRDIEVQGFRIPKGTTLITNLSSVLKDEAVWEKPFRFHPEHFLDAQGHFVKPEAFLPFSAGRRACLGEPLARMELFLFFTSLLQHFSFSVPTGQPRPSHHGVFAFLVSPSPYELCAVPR

COc1ccc(NC(=O)Cn2cc(C(=O)c3ccco3)c3ccccc32)cc1
IC50 [1]: > 119 µM (inactive)
IC50 (Exodeoxyribonuclease V): > 119 µM (inactive)

CC(=O)Nc1nc2ccccc2n1Cc1ccccc1Cl
IC50 [2]: > 20 µM (inactive)
IC50 [3]: > 20 µM (inactive)
IC50 (Tumor necrosis factor): 19.9 µM (active)
IC50 (HEK293): > 20 µM (inactive)
CC50 [4]: 14.1 µM (active)
CC50 [5]: > 20 µM (active)
CC50 [6]: 15.5 µM (active)
IC50 (cells [7]): 4.15 µM (active)

O=C(O)c1c(-n2cccc2)sc2c1CCCC2
IC50 [2]: > 20 µM (inactive)
IC50 [3]: > 20 µM (inactive)
IC50 (Tumor necrosis factor): > 20 µM (inactive)
IC50 (HEK293): > 20 µM (inactive)

COc1cc(NC(=O)c2cncc(-c3ccc(C#N)cc3)c2)cc(C(=O)Nc2cccc(C(F)(F)F)c2)c1
IC50 (SUMO-activating enzyme): 53.5 µM (active)

NC(=O)CC(NC(=O)Cc1cccc2ccccc12)c1ccc(NCCc2ccccc2F)c([N+](=O)[O-])c1 (stereo not drawn)
IC50 (SUMO-activating enzyme): 39 µM (active)

COc1cccc(-c2nc(N(C)C)c3ccccc3n2)c1
AC50 (Cytochrome P450 2C9): inconclusive

N#C/C(=C(/O)COC(=O)CSc1ccc(Cl)cc1)c1nc2ccccc2[nH]1
IC50 [2]: > 20 µM (inactive)
IC50 [3]: > 20 µM (inactive)
IC50 (Tumor necrosis factor): > 20 µM (inactive)
IC50 (HEK293): > 20 µM (inactive)

CN1CCCC2(CCN(C(=O)c3ccncc3)CC2)C1
AC50 (Cytochrome P450 2C9): inconclusive
AC50 (Cytochrome P450 2D6): 7.94 µM (inconclusive)

O=C(Nc1nc2ccccc2n1Cc1ccc(Cl)cc1)c1ccc(F)cc1
IC50 [2]: > 20 µM (inactive)
IC50 [3]: > 20 µM (inactive)
IC50 (Tumor necrosis factor): > 20 µM (inactive)
IC50 (HEK293): > 20 µM (inactive)

O=C(Nc1nc2ccccc2n1Cc1ccc(Cl)cc1)C1CCCCC1
IC50 [2]: > 20 µM (inactive)
IC50 [3]: > 20 µM (inactive)
IC50 (Tumor necrosis factor): > 20 µM (inactive)
IC50 (HEK293): > 20 µM (inactive)

COc1cccc(/C=N\NC(=O)c2ccc(Cn3cc(Br)c([N+](=O)[O-])n3)o2)c1O
EC50 [8]: 1.09 µM (active)
EC50 [9]: 26 µM (active)
AC50 (INS1): 1.89 µM (active)
EC50 [10]: > 60 µM (not active)
EC50 (cells [11]): 28.6 µM (active)
EC50 (cells [12]): 51.1 µM (active)
IC50 [1]: 31.8 µM (inactive)
IC50 (Exodeoxyribonuclease V): > 119 µM (inactive)
EC50 [13]: 10.4 µM (active)
EC50 [14]: > 150 µM (inactive)
EC50 [15]: 20.2 µM (active)

Cc1ccnc(NS(=O)(=O)c2ccc(N)cc2)n1 [SULFAMERAZINE]
AC50 (Cytochrome P450 2C9): inconclusive
